Measurements published in ChEMBL document CHEMBL1149199 (Bioorg Med Chem Lett, 2004).

Legend:
[1] = target: T1, Sodium-dependent noradrenaline transporter (Homo sapiens, UniProt P23975); test: Ability to inhibit [3H]nisoxetine binding to cloned human norepinephrine (NE) transporter; Average of two experiments
[2] = target: T2, Sodium-dependent dopamine transporter (Homo sapiens, UniProt Q01959)
Description: Ability to inhibit [3H]mazindol binding to cloned human dopamine (DA) transporter; Average of two experiments

[3] = target: T3, Sodium-dependent serotonin transporter (Homo sapiens, UniProt P31645)
Description: Ability to inhibit [3H]paroxetine binding to cloned human serotonin (5-HT) transporter; Average of two experiments

[4] = target: T2, Sodium-dependent dopamine transporter; test: Ability to inhibit [3H]mazindol binding to cloned human dopamine (DA) transporter
[5] = target: T3, Sodium-dependent serotonin transporter; remark: listed apart in the source
Description: Ability to inhibit [3H]paroxetine binding to cloned human serotonin (5-HT) transporter

[6] = target: T1, Sodium-dependent noradrenaline transporter

T1 sequence (P23975 whole entry): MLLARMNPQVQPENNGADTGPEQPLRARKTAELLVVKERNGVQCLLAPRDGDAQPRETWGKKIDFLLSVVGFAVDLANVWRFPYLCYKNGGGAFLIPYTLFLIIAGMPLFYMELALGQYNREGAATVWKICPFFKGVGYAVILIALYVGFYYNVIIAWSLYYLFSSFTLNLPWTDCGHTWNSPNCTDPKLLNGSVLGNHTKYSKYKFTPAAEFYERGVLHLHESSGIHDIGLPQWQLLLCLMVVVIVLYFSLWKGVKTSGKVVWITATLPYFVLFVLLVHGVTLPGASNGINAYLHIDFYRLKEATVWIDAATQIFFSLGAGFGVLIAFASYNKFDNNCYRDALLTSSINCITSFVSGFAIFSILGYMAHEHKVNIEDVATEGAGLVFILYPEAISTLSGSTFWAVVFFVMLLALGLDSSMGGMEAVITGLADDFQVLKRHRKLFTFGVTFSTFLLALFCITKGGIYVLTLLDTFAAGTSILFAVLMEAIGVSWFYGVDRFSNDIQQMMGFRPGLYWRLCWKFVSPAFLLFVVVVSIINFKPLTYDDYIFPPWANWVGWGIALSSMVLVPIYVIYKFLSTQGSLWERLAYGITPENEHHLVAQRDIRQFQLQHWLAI
T2 sequence (Q01959 whole entry): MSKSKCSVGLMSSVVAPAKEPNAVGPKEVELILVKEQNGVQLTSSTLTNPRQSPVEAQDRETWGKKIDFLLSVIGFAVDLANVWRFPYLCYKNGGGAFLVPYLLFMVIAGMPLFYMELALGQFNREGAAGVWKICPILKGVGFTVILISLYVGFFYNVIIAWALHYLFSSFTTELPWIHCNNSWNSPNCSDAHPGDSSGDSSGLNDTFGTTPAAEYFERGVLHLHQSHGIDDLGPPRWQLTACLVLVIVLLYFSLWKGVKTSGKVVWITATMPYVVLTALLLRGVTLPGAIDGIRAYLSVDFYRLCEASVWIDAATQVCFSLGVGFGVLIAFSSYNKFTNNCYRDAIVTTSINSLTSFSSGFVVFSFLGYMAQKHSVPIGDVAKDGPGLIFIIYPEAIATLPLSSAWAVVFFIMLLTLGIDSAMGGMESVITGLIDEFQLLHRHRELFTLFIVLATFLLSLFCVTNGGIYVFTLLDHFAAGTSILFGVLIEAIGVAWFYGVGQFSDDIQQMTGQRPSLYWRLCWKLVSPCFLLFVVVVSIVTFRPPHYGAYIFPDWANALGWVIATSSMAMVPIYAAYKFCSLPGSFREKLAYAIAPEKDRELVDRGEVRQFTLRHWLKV
T3 sequence (P31645 whole entry): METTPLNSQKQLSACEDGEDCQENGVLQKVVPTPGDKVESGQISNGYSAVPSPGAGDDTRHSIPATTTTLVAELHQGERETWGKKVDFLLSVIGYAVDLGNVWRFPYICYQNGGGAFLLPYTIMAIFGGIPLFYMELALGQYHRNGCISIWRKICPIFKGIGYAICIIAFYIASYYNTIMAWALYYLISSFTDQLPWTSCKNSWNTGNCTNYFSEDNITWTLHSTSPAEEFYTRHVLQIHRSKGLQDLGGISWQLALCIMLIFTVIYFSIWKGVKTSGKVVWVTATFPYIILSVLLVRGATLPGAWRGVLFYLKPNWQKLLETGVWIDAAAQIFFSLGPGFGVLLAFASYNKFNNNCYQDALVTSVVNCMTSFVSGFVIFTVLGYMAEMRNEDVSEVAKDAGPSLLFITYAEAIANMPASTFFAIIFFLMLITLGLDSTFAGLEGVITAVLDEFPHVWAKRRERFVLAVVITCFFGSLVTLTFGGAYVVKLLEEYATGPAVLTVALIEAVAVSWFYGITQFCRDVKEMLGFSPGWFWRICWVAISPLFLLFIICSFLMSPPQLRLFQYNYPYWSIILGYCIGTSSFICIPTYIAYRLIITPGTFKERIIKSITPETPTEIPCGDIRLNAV

Ki [1]	Ki [2]	Ki [3]	Ki [4]	Ki [5]	Ki [6]	Compound
4.72 nM	163 nM	1.06 nM				CNCC[C@H](Oc1cccc2cc(O)ccc12)c1cccs1
235 nM	353 nM	3.66 nM				CNCC[C@H](Oc1cccc2c(OC)c(O)ccc12)c1cccs1
			> 10000 nM	31.7 nM	554 nM	CNCC[C@H](Oc1cccc2c(O)c(O)ccc12)c1cccs1 (stereo in doubt; form 1)
			> 10000 nM	1460 nM	5450 nM	CNCC[C@H](Oc1cccc2cc(O[C@@H]3O[C@H](C(=O)O)[C@@H](O)[C@H](O)[C@H]3O)ccc12)c1cccs1
			3510 nM	> 10000 nM	> 10000 nM	CNCC[C@H](Oc1ccc(O[C@@H]2O[C@H](C(=O)O)[C@@H](O)[C@H](O)[C@H]2O)c2ccccc12)c1cccs1
97.1 nM	130 nM	63.9 nM				CNCC[C@H](Oc1ccc(O)c2ccccc12)c1cccs1

The remaining lines, values behind:

Compound	Ki [1]	Ki [2]	Ki [3]	Ki [4]	Ki [5]	Ki [6]
CNCC[C@H](Oc1cccc2c(O)cccc12)c1cccs1	18.4 nM	241 nM	9.6 nM			
CNCC[C@H](Oc1cccc2c(OS(=O)(=O)O)c(OC)ccc12)c1cccs1				> 10000 nM	3120 nM	> 10000 nM
CNCC[C@H](Oc1cccc2c(O)c(O)ccc12)c1cccs1 (stereo in doubt; form 2)				7270 nM	120 nM	695 nM
CNCC[C@H](Oc1cccc2c(O[C@@H]3O[C@H](C(=O)O)[C@@H](O)[C@H](O)[C@H]3O)c(OC)ccc12)c1cccs1				> 10000 nM	> 10000 nM	> 10000 nM
CNCC[C@H](Oc1cccc2c(O[C@@H]3O[C@H](C(=O)O)[C@@H](O)[C@H](O)[C@H]3O)c(O[C@@H]3O[C@H](C(=O)O)[C@@H](O)[C@H](O)[C@H]3O)ccc12)c1cccs1				> 10000 nM	> 10000 nM	> 10000 nM
CNCC[C@H](Oc1cccc2c(O)c(OC)ccc12)c1cccs1				2810 nM	266 nM	920 nM
